Patent US8324245B2, “Quinoline derivative and quinazoline derivative inhibiting self-phosphorylation of hepatocytus proliferator receptor, and medicinal composition containing the same” (Kyowa Hakko Kirin Co., Ltd., priority 2001, dated 2012)

Target: T1, met (HGF receptor) in human gastric cancer cells MKN45 (Homo sapiens, UniProt P08581)
T1 construct: endogenous in cells; host or cells: MKN45 human gastric cancer cells
Test: Inhibitory activity against met-autophosphorylation using ELISA method (2), MKN45 cells, HGF-independent
Format: cell-based
Procedure, shortened: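 Met autophosphorylation was read by sandwich ELISA: phosphotyrosine capture (PY20), anti-HGF receptor detection, peroxidase read-out at 450 nm. Lysates came from MKN45 gastric cancer cells kept in 0.1% FCS RPMI and treated 1 h at 37 °C with test compound, with no added HGF.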

T1 sequence (P08581 25-1390): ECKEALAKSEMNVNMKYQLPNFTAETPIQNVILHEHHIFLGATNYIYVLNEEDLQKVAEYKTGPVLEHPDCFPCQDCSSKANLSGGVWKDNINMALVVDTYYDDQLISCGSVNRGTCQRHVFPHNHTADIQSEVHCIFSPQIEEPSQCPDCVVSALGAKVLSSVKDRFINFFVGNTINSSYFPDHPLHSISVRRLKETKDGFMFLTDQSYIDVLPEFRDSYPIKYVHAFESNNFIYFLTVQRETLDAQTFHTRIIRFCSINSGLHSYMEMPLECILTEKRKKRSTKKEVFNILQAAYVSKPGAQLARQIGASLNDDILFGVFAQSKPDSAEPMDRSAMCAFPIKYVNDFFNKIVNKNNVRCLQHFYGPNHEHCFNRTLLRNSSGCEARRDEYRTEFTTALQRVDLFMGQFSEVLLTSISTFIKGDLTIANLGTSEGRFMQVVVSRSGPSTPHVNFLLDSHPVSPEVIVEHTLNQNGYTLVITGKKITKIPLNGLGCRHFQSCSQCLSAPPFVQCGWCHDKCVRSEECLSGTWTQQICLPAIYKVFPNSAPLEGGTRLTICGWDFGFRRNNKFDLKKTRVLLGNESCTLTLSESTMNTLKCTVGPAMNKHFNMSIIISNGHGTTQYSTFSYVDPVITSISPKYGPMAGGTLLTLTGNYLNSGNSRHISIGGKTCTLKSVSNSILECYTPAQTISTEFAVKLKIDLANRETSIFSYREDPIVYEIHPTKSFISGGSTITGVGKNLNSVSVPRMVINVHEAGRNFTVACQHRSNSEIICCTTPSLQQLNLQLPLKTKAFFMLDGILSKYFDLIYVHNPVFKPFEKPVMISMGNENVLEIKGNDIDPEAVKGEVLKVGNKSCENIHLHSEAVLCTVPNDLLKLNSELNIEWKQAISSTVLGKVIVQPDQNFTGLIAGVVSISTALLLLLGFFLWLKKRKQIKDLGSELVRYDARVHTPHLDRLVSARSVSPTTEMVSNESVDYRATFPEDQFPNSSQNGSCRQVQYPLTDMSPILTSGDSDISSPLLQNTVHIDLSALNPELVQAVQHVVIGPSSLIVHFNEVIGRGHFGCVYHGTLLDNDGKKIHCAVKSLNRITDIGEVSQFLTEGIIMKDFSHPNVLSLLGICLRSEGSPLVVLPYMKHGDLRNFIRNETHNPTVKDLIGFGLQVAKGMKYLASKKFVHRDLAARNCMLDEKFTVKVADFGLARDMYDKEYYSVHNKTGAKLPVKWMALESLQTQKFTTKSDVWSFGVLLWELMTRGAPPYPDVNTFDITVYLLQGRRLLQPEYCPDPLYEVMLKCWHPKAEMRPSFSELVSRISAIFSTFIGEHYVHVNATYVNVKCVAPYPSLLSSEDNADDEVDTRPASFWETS

IC50 [nM] | SMILES
957 | COc1cc2nccc(Oc3ccc(NC(=O)NC(=O)Nc4ccccc4Cl)cc3)c2cc1OC [Example 248, N-(2-chlorophenyl)-({[4-(6,7-dimethoxy-quinolin-4-yloxy)anilino]carbonyl}amino)methanamide]
1480 | CCCCC(=O)NC(=O)Nc1ccc(Oc2ccnc3cc(OC)c(OC)cc23)c(Cl)c1 [Example 109, 1-[3-chloro-4-(6,7-dimethoxyquinolin-4-yloxy)phenyl]-3-pentanoylurea]
1730 | COc1cc2nccc(Oc3ccc(NC(=O)NC(=O)CN(C)C(C)C)cc3Cl)c2cc1OC [Example 112, 1-[3-chloro-4-(6,7-dimethoxyquinolin-4-yloxy)phenyl]-3-[2-(isopropylmethylamino)acetyl]urea]
19.7 | COc1cc2c(Oc3ccc(NC(=O)NC(=O)Cc4ccccc4F)cc3F)ccnc2cc1OCCCN1CCN(C)CC1 [Example 296, 1-(3-Fluoro-4-{6-methoxy-7-[3-(4-methyl-piperazin-1-yl)-propoxy]-quinolin-4-yloxy}-phenyl)-3-[2-(2-fluoro-phenyl)-acetyl]-urea]
642 | COc1cc2nccc(Oc3ccc(NC(=S)NC(=O)Cc4cccc(C(F)(F)F)c4)c(F)c3)c2cc1OC [Example 202, 1-[4-(6,7-dimethoxyquinolin-4-yloxy)-2-fluorophenyl]-3-[2-(3-trifluoromethylphenyl)acetyl]-thiourea]
268 | COc1cc2nccc(Oc3ccc(NC(=O)NC(=O)Cc4cc(F)ccc4F)c(F)c3)c2cc1OC [Example 132]
281 | COc1cc2nccc(Oc3ccc(NC(=O)NC(=O)Nc4cccc(C)c4)cc3)c2cc1OC [Example 256, N-(3-methylphenyl)-({[4-(6,7-dimethoxy-quinolin-4-yloxy)anilino]carbonyl}amino)methanamide]
15 | COc1cc2c(Oc3ccc(NC(=S)NC(=O)Cc4ccccc4)cc3F)ccnc2cc1OCCN1CCC(CO)CC1 [Example 284, 1-(3-Fluoro-4-{7-[2-(4-hydroxymethyl-piperidin-1-yl)-ethoxy]-6-methoxy-quinolin-4-yloxy}-phenyl)-3-phenylacetyl-thiourea]
342 | COc1cccc(NC(=O)NC(=O)Nc2ccc(Oc3ccnc4cc(OC)c(OC)cc34)cc2)c1 [Example 244, N-(3-methoxyphenyl)-({[4-(6,7-dimethoxy-quinolin-4-yloxy)anilino]carbonyl}amino)methanamide]
65.9 | COc1cc2c(Oc3ccc(NC(=S)NC(=O)Cc4ccc(C)cc4)cc3F)ccnc2cc1OCCCN1CCOCC1 [Example 304, 1-{3-Fluoro-4-[6-methoxy-7-(3-morpholin-4-yl-propoxy)-quinolin-4-yloxy]-phenyl}-3-(2-p-toluyl-acetyl)-thiourea]
125 | COc1cc2c(Oc3ccc(NC(=S)NC(=O)Cc4cccc(Cl)c4)cc3F)ccnc2cc1OCC(O)CN1CCCCC1 (stereo not shown) [Example 321, 1-[2-(3-Chloro-phenyl)-acetyl]-3-{3-fluoro-4-[7-(2-hydroxy-3-piperidin-1-yl-propoxy)-6-methoxy-quinolin-4-yloxy]-phenyl}-thiourea]
321 | COc1cc2nccc(Oc3ccc(NC(=S)NC(=O)Cc4c(F)ccc(F)c4F)cc3)c2cc1OC [Example 204, 1-[4-(6,7-dimethoxyquinolin-4-yloxy)phenyl]-3-[2-(2,3,6-trifluorophenyl)acetyl]thiourea]
482 | COc1cc2nccc(Oc3ccc(NC(=S)NC(=O)COc4ccccc4)cc3Cl)c2cc1OC [Example 157, 1-[3-chloro-4-(6,7-dimethoxyquinolin-4-yloxy)phenyl]-3-(2-phenoxyacetyl)thiourea]
316 | COc1cc2nccc(Oc3cc(C)c(NC(=O)CC(=O)Nc4ccc(F)cc4F)cc3C)c2cc1OC [Example 224, N-(2,4-difluorophenyl)-N′-[4-(6,7-dimethoxy-quinolin-4-yloxy)-2,5-dimethylphenyl]malonamide]
30.7 | COc1cc2nccc(Oc3ccc(NC(=O)NC(=O)Cc4ccccc4)cc3F)c2cc1OC [Example 17, 1-[4-(6,7-dimethoxyquinolin-4-yloxy)-3-fluoro-phenyl]-3-phenylacetylurea]
302 | COc1cc2nccc(Oc3ccc(NC(=O)C(C)C(=O)Nc4ccc(F)cc4F)cc3)c2cc1OC (stereo not shown) [Example 15, N-(2,4-difluorophenyl)-N′-[4-(6,7-dimethoxy-quinolin-4-yloxy)phenyl]-2-methylmalonamide]
21.1 | CCN(CC)CCCOc1cc2nccc(Oc3ccc(NC(=O)NC(=O)Cc4ccccc4F)cc3F)c2cc1OC [Example 293, 1-{4-[7-(3-Diethylamino-propoxy)-6-methoxy-quinolin-4-yloxy]-3-fluoro-phenyl}-3-[2-(2-fluoro-phenyl)-acetyl]-urea]

IC50 [nM] | SMILES
49.2 | COc1cc2nccc(Oc3ccc(NC(=S)NC(=O)CC4C5CCC4CC5)cc3)c2cc1OC (stereo not shown) [Example 88, 1-(2-bicyclo[2.2.1]hepto-7-ylacetyl)-3-[4-(6,7-dimethoxyquinolin-4-yloxy)phenyl]thiourea]
19.7 | COc1cc2nccc(Oc3ccc(NC(=S)NC(=O)Cc4ccccc4)cc3C)c2cc1OC [Example 67, 1-[4-(6,7-dimethoxyquinolin-4-yloxy)-3-methyl-phenyl]-3-phenylacetylthiourea]
132 | COc1cc2nccc(Oc3ccc(NC(=S)NC(=O)c4cccc5ccccc45)c(F)c3)c2cc1OC [Example 57, 1-[4-(6,7-dimethoxyquinolin-4-yloxy)-2-fluoro-phenyl]-3-(naphthalene-1-carbonyl)thiourea]
267 | COc1cc2nccc(Oc3ccc(NC(=S)NC(=O)CCCC(C)C)cc3)c2cc1OC [Example 177, 1-[4-(6,7-dimethoxyquinolin-4-yloxy)phenyl]-3-(5-methyl-hexanoyl)thiourea]
21.4 | COc1cc2c(Oc3ccc(NC(=O)NC(=O)Cc4ccccc4)cc3F)ccnc2cc1OCCCN1CCC(CO)CC1 [Example 308, 1-(3-Fluoro-4-{7-[3-(4-hydroxymethyl-piperidin-1-yl)-propoxy]-6-methoxy-quinolin-4-yloxy}-phenyl)-3-phenylacetyl-urea]
91.8 | COc1cc2nccc(Oc3ccc(NC(=O)CC(=O)Nc4ccc(F)cc4F)cc3)c2cc1OC [Example 102, N-(2,4-difluorophenyl)-N′-[4-(6,7-dimethoxy-quinolin-4-yloxy)phenyl]malonamide]
292 | COc1cc2nccc(Oc3ccc(NC(=O)NC(=O)CSC4CCCC4)cc3)c2cc1OC [Example 7, 1-(2-cyclopentylsulfanylacetyl)-3-[4-(6,7-dimethoxyquinolin-4-yloxy)phenyl]urea]
2230 | COc1cc2nccc(Oc3ccc(NC(=O)NC(=O)Nc4cccc5cccnc45)cc3)c2cc1OC [Example 260, N-(8-quinolyl)-({[4-(6,7-dimethoxyquinolin-4-yloxy)anilino]carbonyl}amino)methanamide]
342 | COc1cc2nccc(Oc3ccc(NC(=O)NC(=O)Cc4ccccc4C(F)(F)F)c(F)c3)c2cc1OC [Example 136, 1-[4-(6,7-dimethoxyquinolin-4-yloxy)-2-fluorophenyl]-3-[2-(2-trifluoromethylphenyl)acetyl]urea]
268 | COc1cc2nccc(Oc3ccc(NC(=S)NC(=O)CCCC(C)C)c(F)c3)c2cc1OC [Example 178, 1-[4-(6,7-dimethoxyquinolin-4-yloxy)-2-fluorophenyl]-3-(5-methyl-hexanoyl)thiourea]
423 | COc1cc2nccc(Oc3ccc(NC(=S)NC(=O)Cc4cccc(Cl)c4)c(F)c3)c2cc1OC [Example 172, 1-[2-(3-chlorophenyl)acetyl]-3-[4-(6,7-dimethoxyquinolin-4-yloxy)-2-fluorophenyl]thiourea]
31.8 | COc1cc2nccc(Oc3ccc(NC(=O)NC(=O)Cc4ccsc4)cc3F)c2cc1OC [Example 20, 1-[4-(6,7-dimethoxyquinolin-4-yloxy)-3-fluoro-phenyl]-3-(2-thiophen-3-ylacetyl)urea]
286 | COc1cc2nccc(Oc3ccc(NC(=O)NC(=O)Nc4ccc(C)cc4)cc3)c2cc1OC [Example 257, N-(4-methylphenyl)-({[4-(6,7-dimethoxy-quinolin-4-yloxy)anilino]carbonyl}amino)methanamide]
2080 | COc1cc2nccc(Oc3ccc(NC(=O)NC(=O)c4ccccc4C)c(F)c3)c2cc1OC [Example 108, 1-[4-(6,7-dimethoxyquinolin-4-yloxy)-2-fluorophenyl]-3-(2-methyl-benzoyl)urea]
379 | COc1cc2nccc(Oc3ccc(NC(=O)CC(=O)NC4CCC4)cc3)c2cc1OC [Example 212, N-cyclobutyl-N′-[4-(6,7-dimethoxyquinolin-4-yloxy)phenyl]malonamide]
229 | COc1cc2c(Oc3ccc(NC(=O)NC(=O)Cc4ccc(F)cc4)cc3F)ccnc2cc1OCCCN1CCOCC1 [Example 46, 1-{3-fluoro-4-[6-methoxy-7-(3-morpholin-4-yl-propoxy)quinolin-4-yloxy]phenyl}-3-[2-(4-fluorophenyl)-acetyl]urea]
20.3 | COc1cc2c(Oc3ccc(NC(=O)NC(=O)Cc4ccccc4)cc3F)ccnc2cc1OCCCN1CCCC1 [Example 292, 1-{3-Fluoro-4-[6-methoxy-7-(3-pyrrolidin-1-yl-propoxy)-quinolin-4-yloxy]-phenyl}-3-phenylacetyl-urea]
